Patent EP2711367A1, “New spiroepoxide tetrahydrobenzo-triazoles and -imidazoles and their use as MetAP-II inhibitors” (Deutsches Krebsforschungszentrum, priority 2012, dated 2014)
Like-named read-outs stand apart in the source and are kept apart here.

What was measured:
hsMetAP-I = hsMetAP-I (Homo sapiens, UniProt P53582); test: MetAP inhibitory activity, Met-Gly-Met-Met substrate, HPLC detection of Gly-Met-Met; assay type: biochemical, hs; settings: single concentration: inhibitor 25 µM, enzyme 50 nM, 15 minutes substrate incubation at 37 °C
Method: (§1) The below protocol describes the measurement of the inhibitory activity of the compounds of the present invention by using E. coli MetAP, hsMetAP-I, and hsMetAP-II.
(§2) Inhibition activity of compounds was studied using the tetrapeptide substrate Met-Gly-Met-Met (Bachem) followed by HPLC analysis of the product Gly-Met-Met. The assay was performed in 96 well plates (Greiner) at a total reaction volume of 100 µl. […] A positive control with DMSO solution instead of inhibitor at the corresponding concentration was prepared. Then the substrate Met-Gly-Met-Met was added to a final concentration of 400 µM. After an incubation period of 15 minutes (HsMetAP-I), 20 minutes (EcMetAP) or 60 minutes (HsMetAP-II) at 37 °C, the enzyme reaction was stopped by adding 10 µl 4 % trifluoroacetic acid. The plate was centrifuged at 1000 x g for 10 minutes.
(§3) Detection of the product Gly-Met-Met was performed by HPLC (Jasco), and typically using the following, or equivalent conditions: C18 column (Dr. Maisch, ReproSil-Pur® 120 ODS-3, 3 µm, 50 x 2 mm). 80 µl of sample were applied on the column and eluted with mobile phase A (water and 0.1 % trifluoroacetic acid, filtered, degassed) and B (acetonitrile and 0.1 % trifluoroacetic acid, degassed) over 8 minutes.
(§4) Percentage inhibition was calculated as the relation of Gly-Met-Met amount resulting in inhibited and uninhibited enzyme reaction (positive control). […] The values were determined in relation to positive controls with equal DMSO contents. The inhibition values for the varying concentrations of inhibitor were then fitted to a logarithmic dose-response curve and the IC50 values were calculated from the equation thus obtained.

hsMetAP-II = hsMetAP-II (Homo sapiens, UniProt P50579); test: as above; assay type: biochemical, hs
Method: as §1
Inhibition activity of compounds was studied using the tetrapeptide substrate Met-Gly-Met-Met (Bachem) followed by HPLC analysis of the product Gly-Met-Met. The assay was performed in 96 well plates (Greiner) at a total reaction volume of 100 µl. […] Then the substrate Met-Gly-Met-Met was added to a final concentration of 400 µM. After an incubation period of 15 minutes (HsMetAP-I), 20 minutes (EcMetAP) or 60 minutes (HsMetAP-II) at 37 °C, the enzyme reaction was stopped by adding 10 µl 4 % trifluoroacetic acid. The plate was centrifuged at 1000 x g for 10 minutes.
as §3, §4

E. coli MetAP = E. coli MetAP (Escherichia coli, UniProt P0AE18); test: as above; assay type: biochemical; settings: for E. Coli % inhibition: single concentration: inhibitor 25 µM, enzyme 50 nM, 20 minutes substrate incubation at 37 °C; for inhibition at 25 µM: read-out: E. Coli % inhibition
Method: as §1, §2, §3, §4

[1] = test system: human umbilical vein endothelial cells (HUVEC); test: HUVEC growth arrest, crystal violet staining; assay type: cell-based
Source text: For the measurement of the HUVEC growth arrest (Example 19) and the used materials and equipment were:
• Cells: Primary human umbilical vein cells (HUVEC) were obtained from GIBCO (Cat. C-015-5C). • Cell culture medium: Medium 200 supplemented with LSGS (Gibco, Cat. M-200-500). • Trypsin/EDTA (Gibco, Cat R-001-100) • Trypsin Neutralizer solution (Gibco, Cat R-002-100). • Crystal violet (Merck / Cat. no. 1408) • Ethanol (Riedel-de-Haen / Cat. no. 32205) • Acetic acid (Riedel-de-Haen / Cat. no. 33209) • Culture flasks: Coming, 430168 • 96 well plates: Greiner, 655 101
• Microtiter pipettes: •Brand Transferpette-8, • Gilson Pipetman 20 and 200 Laminar air flow cabinet: Gelman, Celaire • ELISA reader: Thermo, Multiskan Ascent • Microscope: Leitz Diavert • Balance: Sartorius RC 210 D • CO2 incubator: Heraeus CO2-Auto-Zero • Centrifuge: Heraeus Biofuge primo • Cell counter: Assistent, Neubauer hematocytometer
Crystal violet solution: • Crystal violet (Merck) was dissolved in ethanol (PA quality, Roth) to a concentration of 10 %. The solution was diluted with ddH2O 1:20.
Test compounds: • Compounds of the present invention were dissolved at a concentration of 10 mM in DMSO (Roth, Cat. 47201). Stock solutions of test compounds were diluted 1:10 not earlier than 1 hour before the assay was made.
• 1. HUVEC cells were seeded in 96-well plates ([…]). • 2. 6 hours later test compounds were added in triplicates Concentrations of test compound: 0, 1.6, 3.2, 6.3, 12.5, 25, 50, 100 µM. Fresh medium and test compounds were added every 48 hr. • 3. One 96 well plate (t=0) with untreated cells was fixed at the same time point as treatment of cells with test compounds was initiated. • 4. Test plates were incubated for 10 days in a CO2 incubator. • 5. Fixation of cells: Wells were washed with 100 µL/well PBS. PBS was decanted and 100 µL of 3 % formaldehyde/well was added. After 5 min, formaldehyde was decanted and plates were dried upside down on blotting paper overnight at room temperature. • 6. Staining: 0.1 mL of crystal violet solution was added to each well with a 12-channel pipette. After incubation for 5 min at room temperature, the crystal violet solution was decanted and plates were washed 5 x by submersion in 3 L fresh water. • 7. After drying (plates were dried on blotting paper upside down overnight) 0.1 mL of ethanol/acetic acid (99:1) was added to each well and the optical density at 595 nm was determined in an ELISA reader.
The evaluation of the growth inhibitory activity was carried out as follows: • Definitions: Growth: Mean OD at t=10 d - mean OD at t=0. • Evaluation: Dose response curves were established by plotting growth against concentration of compounds using Microsoft Excel.

[2] = background, Phase II clinical compound; cited from earlier work
[3] = enzyme 50 nM, 400 µM Met-Gly-Met-Met, 60 minutes at 37 °C, read-out: hsMetAP-II IC50
[4] = single concentration: inhibitor 25 µM, enzyme 50 nM, 60 minutes substrate incubation at 37 °C, read-out: hsMetAP-II % inhibition
[5] = Homo sapiens, HUVEC, 240 h, growth over 10 days, 0-100 µM, OD at 595 nm, read-out: HUVEC IC50
[6] = read-out: hsMetAP-II % inhibition, single concentration: inhibitor 25 µM, enzyme 50 nM, 60 minutes substrate incubation at 37 °C
[7] = hsMetAP-II IC50, enzyme 50 nM, 400 µM Met-Gly-Met-Met, 60 minutes at 37 °C
[8] = single concentration: inhibitor 25 µM, enzyme 50 nM, 60 minutes substrate incubation at 37 °C
[9] = growth over 10 days, 0-100 µM, OD at 595 nm, read-out: HUVEC IC50

E. coli MetAP, sequence (P0AE18 whole entry): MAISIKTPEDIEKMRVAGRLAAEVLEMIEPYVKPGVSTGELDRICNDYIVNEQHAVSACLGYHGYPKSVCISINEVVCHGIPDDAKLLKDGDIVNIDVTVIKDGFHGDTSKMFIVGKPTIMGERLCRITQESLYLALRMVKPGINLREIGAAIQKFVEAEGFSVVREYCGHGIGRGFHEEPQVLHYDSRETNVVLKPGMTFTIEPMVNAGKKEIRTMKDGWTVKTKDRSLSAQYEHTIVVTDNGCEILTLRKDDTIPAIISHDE
hsMetAP-II, sequence (P50579 whole entry): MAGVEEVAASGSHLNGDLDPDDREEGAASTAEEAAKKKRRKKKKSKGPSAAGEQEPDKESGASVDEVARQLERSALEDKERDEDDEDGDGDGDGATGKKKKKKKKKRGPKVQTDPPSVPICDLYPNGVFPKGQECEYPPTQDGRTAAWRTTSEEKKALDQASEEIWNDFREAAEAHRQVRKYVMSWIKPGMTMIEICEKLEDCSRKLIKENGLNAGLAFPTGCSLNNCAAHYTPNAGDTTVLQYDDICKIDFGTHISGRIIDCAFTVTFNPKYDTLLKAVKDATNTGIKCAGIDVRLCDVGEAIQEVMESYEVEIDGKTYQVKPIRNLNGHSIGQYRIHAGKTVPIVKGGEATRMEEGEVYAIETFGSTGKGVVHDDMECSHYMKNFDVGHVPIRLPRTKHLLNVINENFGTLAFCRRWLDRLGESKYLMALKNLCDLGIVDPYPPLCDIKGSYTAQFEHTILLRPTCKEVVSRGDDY

Row | SMILES | hsMetAP-I % inhibition (hsMetAP-I) | IC50 (hsMetAP-II; [3]) [nM] | inhibition at 25 µM (hsMetAP-II; [4]) [%] | E. Coli % inhibition (E. coli MetAP) | IC50 [1, 5] [nM] | inhibition at 25 µM (hsMetAP-II; [6]) [%] | inhibition at 25 µM (E. coli MetAP) [%] | IC50 (hsMetAP-II; [7]) [nM] | further results
1 | COc1ccc(Cn2nnc3c2C2(CCC3=O)CO2)cc1 (stereo not shown) [HHS-I-028-B] | Inactive | 980 ± 30 | 97 ± 0.3 | Inactive | 8800 |  |  |  | inhibitory effect on MetAP-II (in words) (hsMetAP-II): good inhibitory effect
2 | CO[C@@H]1[C@H](OC(=O)NC(=O)CCl)CC[C@]2(CO2)[C@H]1[C@@]1(C)O[C@@H]1CC=C(C)C [TNP-470] |  |  |  |  |  |  |  |  | plasma half-life [2]: ~ 2 min
3 | COc1ccc(Cn2nnc3c2C2(CCC3OC(=O)NCC(C)C)CO2)cc1 (racemic) [UWU-XII-142-A] | Inactive |  |  |  | 2400 | 100 | 18.7 ± 0.8 |  | IC50 (hsMetAP-II): 150 ± 30 nM
4 | O=C1CCC2(CO2)c2c1nnn2Cc1ccc(F)cc1 (stereo not shown) [BK-I-178-A] | Inactive | 870 ± 90 | 100 |  | 3200 |  | 13 ± 5 |  | 
5 | COc1ccc(Cn2nnc3c2[C@]2(CC[C@H]3OC(=O)c3ccccc3)CO2)cc1 (racemic) [UWU-II-023-A] | Inactive |  |  | Inactive |  | 98.6 ± 0.4 |  | 600 ± 10 | inhibitory effect on MetAP-II (in words) (hsMetAP-II): good inhibitory effect; IC50 ([1]; Homo sapiens, HUVEC, 240 h, read-out: HUVEC IC50, growth over 10 days, 0-100 µM, OD at 595 nm): 2400 nM
6 | O=C1CCC2(CO2)c2c1nnn2Cc1ccc(C(F)(F)F)cc1 (stereo not shown) [BK-I-161-A] | Inactive | 520 ± 50 | 100 | Inactive | 900 |  |  |  | inhibitory effect on MetAP-II (in words) (hsMetAP-II): good inhibitory effect
7 | COc1ccc(Cn2nnc3c2[C@@]2(CC[C@H]3OC(=O)c3ccccc3)CO2)cc1 (racemic) [UWU-XII-023-D] | Inactive |  |  | Inactive | 2100 | 45 ± 4 |  | 17000 ± 12000 | 
8 | CC(C)NC(=O)O[C@@H]1CC[C@@]2(CO2)c2c1nnn2Cc1ccccc1 (racemic) [UWU-XII-128-C] | Inactive |  |  |  | 9500 | 60 ± 5 | 18 ± 2 | 18000 ± 9000 | 
9 | O=C1CCC2(CO2)c2c1nnn2Cc1ccc(Cl)cc1 (stereo not shown) [BK-I-184-A] | Inactive | 740 ± 30 | 100 |  | 7400 |  | 14 ± 5 |  | 
10 | O=C1CCC2(CO2)c2c1nnn2CC1CCCCC1 (stereo not shown) [BK-I-177-A] | Inactive | 17000 ± 6000 | 40 ± 3 |  | 9700 |  | 19 ± 5 |  | 
11 | COc1ccc(Cn2nnc3c2C2(CCC3OC(=O)Nc3ccccc3)CO2)cc1 (racemic) [UWU-XIII-005-A] | Inactive |  |  | Inactive |  |  |  | 18000 ± 5000 | hsMetAP-II % inhibition (hsMetAP-II; [8]): 44 ± 6%; IC50 [1, 9]: 14900 nM
12 | COc1ccc(Cn2nnc3c2C2(CCC3OC(=O)NCC(N)=O)CO2)cc1 (stereo not shown) [UWU-XII-143-A] | Inactive |  |  |  | 2600 | 100 | 12 ± 1 | 230 ± 20 | 
13 | COc1ccc(Cn2nnc3c2[C@@]2(CC[C@H]3OC(=O)NC(C)C)CO2)cc1 (racemic) [UWU-XII-131-C] | Inactive |  |  | Inactive | 2500 |  |  |  | 
14 | COc1ccc(Cn2nnc3c2C2(CCC3OC(=O)Nc3ccccc3)CO2)cc1 (racemic) [UWU-XII-149-A] | Inactive |  |  | Inactive |  |  |  | 990 ± 50 | hsMetAP-II % inhibition (hsMetAP-II; [8]): 100%; IC50 [1, 9]: 3200 nM
15 | CC(C)NC(=O)O[C@@H]1CC[C@]2(CO2)c2c1nnn2Cc1ccccc1 (racemic) [UWU-XII-128-A] | Inactive |  |  |  | 1200 | 100 | 24 ± 2 | 420 ± 70 | inhibitory effect on MetAP-II (in words) (hsMetAP-II): good inhibitory effect
